Results published in patent US20090325923A1, “NEW METHOD FOR THE TREATMENT OF INFLAMMATORY DISEASES” (TOPOTARGET SWITZERLAND SA, priority 2006, published 2009).

Experiments:
[1] = test system: Human monocytic cell line THP-1; experiment: Intracellular NAD by enzymatic assay in THP-1 cells; assay type: cell-based
Protocol: The human THP-1 monocytic cell line was cultured in the presence of medium or FK866 and stimulated by LPS.

[2] = test system: Human monocytic cell line THP-1; experiment: LPS-stimulated cytokine secretion by ELISA in THP-1 cells; assay type: cell-based
Protocol: (§1) Human monocytic cell line THP-1 was cultured overnight in the presence of graded doses of nicotinic acid (NA), a precursor of NAD, and then stimulated with lipopolysaccharide (LPS) from gram-negative bacteria for 2 h. The cell supernatant was tested for tumor necrosis factor (TNF) content by ELISA and the intracellular pool of NAD was measured by an enzymatic assay.
(§2) Human monocytic cell line THP-1, human peripheral blood mononuclear cells (PBMC), human monocyte-derived dendritic cells, or mouse peritoneal macrophages were isolated and cultured overnight with increasing doses of FK866, and then stimulated with LPS for 6 h. The culture supernatants were tested for TNF and IL-6 content by ELISA
THP-1 cells were incubated in the presence of 10 nM FK866 and graded doses of NMN. Cells were further stimulated with LPS and intracellular NAD levels and TNFα secretion were determined using standard assays.
as §1, with “This example illustrates the direct relationship between NAD levels in cells and pro-inflammatory cytokine secretion. Human” for “Human”, “of” for “of graded doses of”, “acid,” for “acid (NA),”
as §2, with “This example describes the inhibition of pro-inflammatory cytokines production by the competitive small molecular weight compound inhibitor of NMPRT, ((E)-N-[4-(1-benzoylpiperidin-4-yl)butyl]-3-(pyridin-3-yl)acrylamide, designated FK866). Human” for “Human”, “ELISA.” for “ELISA”
This example illustrates that NAMPT is the only molecular target of FK866. […]

RAW264.7 cell line [3] = experiment: LPS-stimulated TNF secretion by ELISA in RAW264.7 cells; assay type: cell-based, mouse; conditions: RAW264.7 cultured overnight with FK866 plus the added substance, LPS 2 h
Protocol: The murine RAW264.7 cell line was stimulated with LPS in the presence of FK866. TNF protein concentrations were determined by ELISA (above panel) while mRNA levels were determined by RT-PCR (below panel).
(§3) (A) The mouse macrophage cell line RAW264.7 was cultured overnight with increasing doses of FK866, and then stimulated with LPS for 2 h. The culture supernatants were tested for TNF content by ELISA and intracellular NAD levels were measured by an enzymatic assay.
(§4) (B) RAW264.7 cells were cultured overnight in the presence of FK866 and the intracellular pool of NAD was restored by co-incubation of the cells with nicotinic acid (NA). Cells were then stimulated with LPS for 2 h and the culture supernatant was tested for TNF content by ELISA.
(§5) (C) RAW264.7 cells were cultured overnight in the presence of FK866 and NAD levels were maintained by culturing the cells in the presence of extracellular NAD. Cells were then stimulated with LPS for 2 h and the culture supernatant was tested for TNF content by ELISA.
This example illustrates that FK866 inhibits TNFα secretion at a posttranscriptional level. The murine RAW 264.7 cell line was incubated in the presence of graded doses of FK866, stimulated with microbial products, and levels of TNFα released in the supernatant evaluated by ELISA.
as §3, with “This example illustrates the correlation between proinflammatory cytokine secretion and NAD levels in the cell.” for “(A)”
as §4, with “In another experiment,” for “(B)”, “nicotinic acid. Nicotinic” for “nicotinic”, “is a precursor of NAD, but its transformation into NAD is not dependent upon NMPRT and is thus not inhibited by FK866.” for “(NA).”
(§6) In another experiment, RAW264.7 cells were cultured overnight in the presence of FK866 and NAD levels were maintained by culturing the cells in the presence: of extra-cellular NAD. Cells were then stimulated with LPS for 2 h and the culture supernatant was tested for TNF content by ELISA.

RAW264.7 cell line [4] = experiment: Intracellular NAD by enzymatic assay in RAW264.7 cells; assay type: cell-based, mouse; conditions: RAW264.7 cultured overnight with FK866 plus the added substance, LPS 2 h
Protocol: as §3, §4, §5
as §3, with “This example illustrates the correlation between proinflammatory cytokine secretion and NAD levels in the cell.” for “(A)”
as §4, with “In another experiment,” for “(B)”, “nicotinic acid. Nicotinic” for “nicotinic”, “is a precursor of NAD, but its transformation into NAD is not dependent upon NMPRT and is thus not inhibited by FK866.” for “(NA).”
as §6

[5] = test system: collagen-induced arthritis; experiment: Collagen-induced arthritis (CIA) mouse model; assay type: in vivo; conditions: FK866 10 mg/kg ip twice daily or etanercept 15 mg/kg every three days, over 15 days
[6] = THP-1, 10 nM FK866 and graded doses of NMN, LPS

NC(=O)c1ccc[n+]([C@@H]2O[C@H](COP(=O)([O-])O)[C@@H](O)[C@H]2O)c1 [nicotinamide mononucleotide (NMN), nicotinamide mononucleotide]
intracellular NAD levels despite exposure to FK866 [1, 6]: restored | TNFα production despite exposure to FK866 [2, 6]: restored

O=C(O)c1cccnc1 [nicotinic acid]
intracellular NAD levels ([1]; THP-1 cultured overnight with graded doses of nicotinic acid, LPS 2 h): increased in parallel in a dose-dependent fashion | TNF secretion ([2]; THP-1 cultured overnight with graded doses of nicotinic acid, LPS 2 h, ELISA): increased in parallel in a dose-dependent fashion | TNF synthesis in the presence of FK866 (RAW264.7 cell line [3]): restored | NAD levels in the presence of FK866 (RAW264.7 cell line [4]): maintained high levels of NAD

NC(=O)c1ccc[n+]([C@@H]2O[C@H](COP(=O)([O-])OP(=O)(O)OC[C@H]3O[C@@H](n4cnc5c(N)ncnc54)[C@H](O)[C@@H]3O)[C@@H](O)[C@H]2O)c1 [NAD, nicotinamide adenyl dinucleotide]
TNF synthesis in the presence of FK866 (RAW264.7 cell line [3]): restored | NAD levels in the presence of FK866 (RAW264.7 cell line [4]): remained high

etanercept
severity of arthritis in CIA mice [5]: P<0.05 FK866 or etanercept versus placebo
